Columns and labels:
[1] = in vivo; cited from earlier work
[2] = system: sensitive bacterial strains; settings: cited from earlier work
[3] = system: dopamine metabolites HVA and DOPAC in the brain; experiment: Example 1: brain dopamine metabolites (HVA, DOPAC) in adrenalectomized rats with corticosterone or placebo pellets; format: in vivo, rat; settings: vehicle (placebo) pellet animals; haloperidol 1 mg/kg s.c. or clozapine 15 mg/kg s.c. two hours prior to sacrifice
Description: The implanted pellets contained either 100 mg corticosterone (for haloperidol experiments), 50 mg corticosterone (for clozapine experiments) or placebo. Two hours prior to sacrifice the animals were injected with either haloperidol (1 mg/kg s.c; RBI Natick, Mass.) or an equivalent volume of vehicle (0.3% tartaric acid, pH 5.3) or with either clozapine (15 mg/kg s.c.; RBI, Natick, Mass.) or vehicle (0.9% saline plus 0.8% acetic acid).
Animals were sacrificed by decapitation during the first four hours of the light cycle, blood collected and brains removed and frozen on dry ice and stored at −80° C. Corticosterone was measured in plasma by radioimmunoassay (ICN Biochem, Costa Mesa, Calif.) to confirm adrenalectomy and corticosterone replacement. […] Brain regions were dissected within 24-72 hours of slicing. Tissue was placed in 0.1 M perchloric acid with 0.1 mM EDTA and stored for no longer than 2 weeks at −80° C.
Dopamine metabolites homovanillic acid (HVA) and dihydroxyphenylacetic acid (DOPAC) were measured in the brains of the experimental animals. Samples were thawed, homogenized by sonication in 0.1 M perchloric acid/0.1 mM EDTA, and centrifuged for 2 minutes. Tissue pellets were dissolved in 1.0 N NaOH for protein determination (Bio-Rad, Richmond, Calif.). […] DOPAC and HVA were detected using an electrochemical detector. […]

[4] = system: dopamine metabolites HVA and DOPAC in the brain; experiment: Example 2: brain dopamine metabolites (HVA, DOPAC) in rats given mifepristone or placebo pellet; format: in vivo, rat; settings: mifepristone 200 mg 10-day sustained-release pellet
Description: Rats (male Sprague Dawley 175-200 grams) are maintained, 3 rats per cage, under controlled temperature and lighting (12 hours light/12 hours dark) with food and water ad libitum. […] Two hours prior to sacrifice the animals are injected with either haloperidol (1 mg/kg s.c; […] RBI, Natick, Mass.) or vehicle (0.9% saline plus 0.8% acetic acid). Animal sacrifice is by decapitation during the first four hours of the light cycle. Blood is collected and brains removed and frozen on dry ice for storage at −80° C. Frozen brains are sliced into 250 μm sections with a cryostat. The medial prefrontal cortex (AP 13.7 to 12.2 mm) is dissected with a scalpel, the striatum (AP 10.7 to 9.7 mm) is removed with stainless steel cannulae from frozen slices and the core and shell of the nucleus accumbens (AP 10.7 to 9.7 mm) is removed. Brain regions are dissected within 24-72 hours of slicing. […] Dopamine metabolites homovanillic acid (HVA) and dihydroxyphenylacetic acid (DOPAC) are measured in the brains of the experimental animals. […] DOPAC and HVA were detected using an electrochemical detector. […] Brain clozapine levels are analyzed by National Medical Services, Inc. (Willow Grove, PN) while brain and plasma haloperidol and reduced haloperidol and plasma clozapine levels are analyzed by Analytical Psychopharmacology Laboratories (Nathan Kline Institute, Orangeburg, N.Y.), both by gas chromotography.

[5] = system: blood-brain barrier (BBB) permeability; experiment: Example 2: brain haloperidol and clozapine levels in rats given mifepristone or placebo pellet; format: in vivo, rat; settings: mifepristone 200 mg 10-day sustained-release pellet
Description: Animal sacrifice is by decapitation during the first four hours of the light cycle. Blood is collected and brains removed and frozen on dry ice for storage at −80° C.

[6] = system: blood-brain barrier (BBB) permeability; experiment: Example 3: brain Amphotericin B concentration in rats given mifepristone or placebo; format: in vivo, rat; settings: mifepristone 200 mg 10-day sustained release pellet; Amphotericin B 0.1 mg i.v.
Description: Animal sacrifice is by decapitation during the first four hours of the light cycle. Blood is collected and brains removed and frozen on dry ice for storage at −80° C. Amphotericin B concentration is measured in the brains of the experimental animals.

[7] = system: blood-brain barrier (BBB) permeability; experiment: Example 4: brain ampicillin concentration in rats given mifepristone or placebo; format: in vivo, rat; settings: mifepristone 200 mg 10-day sustained release pellet; ampicillin 1.5 mg i.v.
Description: Animal sacrifice is by decapitation during the first four hours of the light cycle. Blood is collected and brains removed and frozen on dry ice for storage at −80° C. Ampicillin concentration is measured in the brains of the experimental animals.

[8] = system: blood-brain barrier (BBB) permeability; experiment: Example 5: brain methotrexate concentration in rats given mifepristone or placebo; format: in vivo, rat; settings: mifepristone 200 mg 10 day sustained-release pellet; methotrexate 0.5 mg i.v.
Description: Animal sacrifice is by decapitation during the first four hours of the light cycle. Blood is collected and brains removed and-frozen on dry ice for storage at −80° C. Methotrexate concentration is measured in the brains of the experimental animals.

[9] = system: blood-brain barrier (BBB) permeability; experiment: Example 6: brain adriamycin concentration in rats given mifepristone or placebo; format: in vivo, rat; settings: mifepristone 2 mg s.c. four hours prior to sacrifice; adriamycin 0.5 mg i.v.
Description: Animal sacrifice is by decapitation during the first four hours of the light cycle. Blood is collected and brains removed and frozen on dry ice for storage at −80° C. Adriamycin concentration is measured in the brains of the experimental animals.

For `Nc1nc2c(ncn2COCCO)c(=O)[nH]1` [Acyclovir, acyclovir], which “concentrations achieved in the CNS as share of those achieved in plasma” value [1] is on record?
The value was 30-50%.

Which “concentration effective against sensitive bacterial strains” value [2] does the source give for `O=C(N[C@H](CO)[C@H](O)c1ccc([N+](=O)[O-])cc1)C(Cl)Cl` [Chloramphenicol, chloramphenicol] here?
The value was ≤ 8 µg/mL.

With `O=C(CCCN1CCC(O)(c2ccc(Cl)cc2)CC1)c1ccc(F)cc1` [haloperidol] as the compound, how does the “levels of HVA and DOPAC in the brain” value [3] read?
Its value is “elevated”.

Which results are given for `CC#C[C@]1(O)CC[C@H]2[C@@H]3CCC4=CC(=O)CCC4=C3[C@@H](c3ccc(N(C)C)cc3)C[C@@]21C` [mifepristone, (11,17)-11-[4-(dimethylmino)phenyl]-17-hydroxy-17-(1-propynyl)estra-4,9-dien-3-one]?
increase in brain dopamine metabolite levels following clozapine, mifepristone-treated vs placebo ([4]; clozapine 15 mg/kg s.c.): greater; increase in brain dopamine metabolite levels following haloperidol, mifepristone-treated vs placebo ([4]; haloperidol 1 mg/kg s.c.): greater; brain concentration of clozapine, mifepristone-treated vs placebo ([5]; clozapine 15 mg/kg s.c.): greater; brain concentration of haloperidol, mifepristone-treated vs placebo ([5]; haloperidol 1 mg/kg s.c.): greater; brain Amphotericin B concentration, mifepristone-treated vs placebo [6]: greater; brain ampicillin concentration, mifepristone-treated vs placebo [7]: greater; brain methotrexate concentration, mifepristone-treated vs placebo [8]: greater; brain adriamycin concentration, mifepristone-treated vs placebo [9]: greater

— patent US20050124533A1, “Glucocorticoid blocking agents for increasing blood-brain barrier permeability stan-261con” (priority 2002, published 2005)
